Data published in ChEMBL document CHEMBL5608141, “Identification of compartment-specific drug sensitivities in CRC organoid-stroma co-cultures” (2024).

Experiments:
Format in all cases: functional, Homo sapiens
Design in all cases: dose or concentration left out as unconfirmed
Colon cancer organoid [1] = experiment: Identification of compartment-specific drug sensitivities in O06 CRC organoid-stroma F06 CAF co-cultures. Organoid is transduced with Lucferase2-P2A-EGFP lentivirus, fibroblast with Renilla-dsRed lentivirus. Dual-Glo Luciferase assay is used to report viability data.
Colon cancer organoid [2] = experiment: Identification of compartment-specific drug sensitivities in O14 CRC organoid-stroma F14 CAF co-cultures. Organoid is transduced with Lucferase2-P2A-EGFP lentivirus, fibroblast with Renilla-dsRed lentivirus. Dual-Glo Luciferase assay is used to report viability data.
Colon cancer organoid [3] = experiment: Identification of compartment-specific drug sensitivities in O20 CRC organoid-stroma F20 CAF co-cultures. Organoid is transduced with Lucferase2-P2A-EGFP lentivirus, fibroblast with Renilla-dsRed lentivirus. Dual-Glo Luciferase assay is used to report viability data.
[4] = Transduced with Lucferase2-P2A-EGFP lentivirus
[5] = Transduced with Renilla-dsRed lentivirus

Compound | Cell Viability (Colon cancer organoid [1]; [4]) [%] | Cell Viability (Colon cancer organoid [1]; [5]) [%] | Cell Viability (Colon cancer organoid [2]; [4]) [%] | Cell Viability (Colon cancer organoid [2]; [5]) [%] | Cell Viability (Colon cancer organoid [3]; [4]) [%] | Cell Viability (Colon cancer organoid [3]; [5]) [%]
C[C@@]1(Cc2ccc(C#N)cc2)C(=O)N(c2cc(Cl)cc(Cl)c2)c2ncc(C(=O)NC3(c4nc(C5CCC5)no4)CC3)n21 [BI 9446] | 82.5213 | 98.3986 | 102.867 | 111.855 | 72.3076 | 136.535
CC(=O)N1CCC(c2ccc(C(=O)NC(=N)N)cc2C(F)(F)F)CC1 [BI 9627] | 118.657 | 157.583 | 100.11 | 107.329 | 96.0735 | 101.417
CCC(=O)N[C@H]1CC[C@@H](C(=O)N(C)c2ccc(-c3nc4ccccc4o3)cc2)C1 [BI 99179] | 14.7827 | 191.434 | 77.0742 | 106.772 | 33.9891 | 149.12
CCC(=O)N[C@@H]1CC[C@H](C(=O)N(C)c2ccc(-c3nc4ccccc4o3)cc2)C1 [BI 99990] | 102.864 | 119.997 | 98.8872 | 100.403 | 115.817 | 121.154
CCS(=O)(=O)c1cc2cc(C[C@](O)(CC(C)(C)c3ccc(F)cc3C(N)=O)C(F)(F)F)[nH]c2cn1 [BI 653048] | 70.4743 | 199.02 | 130.109 | 193.347 | 85.6205 | 287.465
CC[C@H](CC(=O)O)n1c(=O)c2ncccc2n(Cc2cn(C)c3cc(C)cc(C)c23)c1=O [BI-1942] | 119.907 | 136.619 | 102.331 | 109.089 | 108.303 | 100.799
CC[C@@H]1C(=O)N(C)c2cnc(Nc3ccc(C(=O)NC4CCN(C)CC4)cc3OC)nc2N1C1CCCC1 [BI-2536] | 3.341 | 324.743 | 2.9466 | 167.188 | 3.721 | 168.723
CN(C)C(=O)c1sc2nc(N3CCC(S(C)(=O)=O)CC3)cc(C(F)(F)F)c2c1N [BI-5026] | 108.851 | 103.89 | 89.1429 | 109.835 | 83.1119 | 112.021
CCC(F)(F)c1cc(N2CCC(S(C)(=O)=O)CC2)nc2sc(C(N)=O)c(N)c12 [BI-605906] | 93.6384 | 92.3898 | 95.5116 | 75.9837 | 180.529 | 81.0914
CCOc1ccn(-c2ccc(F)cc2)c(=O)c1C(=O)Nc1ccc(Oc2ccnc(N)c2Cl)c(F)c1 [BMS-777607] | 91.8113 | 94.0587 | 88.1625 | 100.395 | 100.48 | 72.8578
O=c1nc(-c2ccccn2)sc2ccccc12 [BTZO-1] | 109.998 | 128.099 | 117.78 | 105.233 | 113.092 | 104.485
O=C1NC(c2ccccn2)Sc2ccccc21 (stereo not given) [BTZO-4] | 80.8326 | 70.0316 | 106.577 | 104.892 | 109.35 | 85.8309
C=CC(=O)Nc1ccc2[nH]c(=O)n(C3CCN(Cc4ccc(-c5nc6cc[nH]c(=O)c6cc5-c5ccccc5)cc4)CC3)c2c1 [Borussertib] | 51.8578 | 132.383 | 60.6786 | 71.4907 | 47.6492 | 149.193
O=C(NOCC1CC1)c1ccc(F)c(F)c1Nc1ccc(I)cc1Cl [CI-1040] | 38.2974 | 73.8424 | 35.7635 | 62.5859 | 44.1491 | 195.336
O=C(c1ccc(F)c(F)c1Nc1ccc(I)cc1F)N1CC(O)([C@@H]2CCCCN2)C1 [COBIMETINIB] | 5.143 | 42.4292 | 13.8076 | 23.8651 | 4.065 | 77.761
COc1c(OCCCN2CCOCC2)ccc2c1N=C(NC(=O)c1cnc(N)nc1)N1CCN=C21 [COPANLISIB] | 1.487 | 40.0213 | 8.823 | 38.6713 | 2.299 | 117.524
COCC(=O)NC/C=C/c1ccc2ncnc(Nc3ccc(Oc4ccc(C)nc4)c(C)c3)c2c1 [CP-724714] | 64.178 | 58.1065 | 105.334 | 107.19 | 97.2693 | 94.0282
CN([C@@H]1CCc2c(CC(=O)O)c3cc(S(C)(=O)=O)ccc3n2C1)S(=O)(=O)c1ccc(F)cc1 [CRTH2-negative-control] | 78.3965 | 74.5251 | 107.65 | 94.275 | 107.561 | 126.69
CNC(=O)c1ccc(Nc2ncc(C(F)(F)F)c(NCc3nccnc3N(C)S(C)(=O)=O)n2)cc1 [DEFACTINIB] | 119.668 | 427.019 | 78.9872 | 82.2867 | 57.0475 | 79.7534
CCN(CCO)CCCOc1ccc2c(Nc3cc(CC(=O)Nc4cccc(F)c4)[nH]n3)ncnc2c1 [DEFOSBARASERTIB] | 9.138 | 166.163 | 12.9014 | 101.396 | 5.365 | 225.013
Cn1c(C2(NC(=O)c3ccc4c(C5CCCC5)c(-c5ncc(Br)cn5)n(C)c4c3)CCC2)nc2ccc(/C=C/C(=O)O)cc21 [DELEOBUVIR] | 117.892 | 131.89 | 99.2157 | 60.0807 | 79.9036 | 130.288
CN1CCN(Cc2ccc(Nc3ncc(Cl)c(Nc4ccccc4S(=O)(=O)N(C)C)n3)cc2)CC1 [DUBERMATINIB] | 0.5937 | 0.7151 | 1 | 1.414 | 1.051 | 16.1981
Cn1cc(C2=C(c3cn(C4CCN(Cc5ccccn5)CC4)c4ccccc34)C(=O)NC2=O)c2ccccc21 [ENZASTAURIN] | 65.6638 | 92.7001 | 80.1065 | 85.9175 | 54.6044 | 78.6109
C[C@H](NC(=O)Nc1cc2[nH]ncc2c(CO)n1)c1ccccn1 [ERKi-NC] | 94.8975 | 86.1568 | 81.1185 | 100.943 | 108.541 | 124.126
C[C@@H](NC(=O)Nc1cc2[nH]ncc2c(CO)n1)c1ccccc1 [ERKi] | 82.7933 | 113.572 | 56.1161 | 76.4372 | 50.0756 | 135.339
O=C(Nc1nc2cccc(-c3ccc(CN4CCS(=O)(=O)CC4)cc3)n2n1)C1CC1 [FILGOTINIB] | 100.525 | 92.8016 | 113.804 | 94.0881 | 113.419 | 86.0918
CN(C(=O)c1ccccc1)c1cc(N(C)c2ccc3c(c2)CCc2ccc(C(=O)NCCN4CCOCC4)cc2C3=O)ccc1F [FM-743] | 67.0526 | 69.6878 | 122.056 | 99.7372 | 87.6379 | 153.202
O=C(NCCN1CCOCC1)c1ccc2c(c1)C(=O)c1ccc(Nc3ccc(F)c(NC(=O)c4ccccc4)c3)cc1CC2 [FS-694] | 67.8661 | 67.282 | 121.73 | 92.4198 | 66.3241 | 119.038
CC(C)(C)OC(=O)N1CCCC1CNC1CCC(c2cc(F)ccc2F)(S(=O)(=O)c2ccc(Cl)cc2)CC1 (stereo not given) [GSI-NC] | 96.8575 | 78.4593 | 112.017 | 95.5535 | 93.8933 | 100.789
CC(=O)Nc1c(F)cc(C(=O)N[C@H]2CC[C@H](O)CC2)cc1O[C@@H](C)c1ccccc1 [GSK046] | 141.493 | 157.689 | 96.2623 | 124.481 | 118.485 | 118.66
